Results taken from patent US6492398B1, “Thiazoloindolinone compounds” (SmithKline Beechman Corporation, priority 1999, dated 2002).
Values after ≈ are worked out from the molar mass of the structure shown.

Experiments:
[1] = Solubilities in solvent media (PEG 400, transcutol, methanol); format: physicochemical
Text: The solubilities (in milligrams per milliliter, mg/mL) of the Form A compound in polyethylene glycol 400, transcutol and methanol solvents are as follows:
The solubilities (in milligrams per milliliter, mg/mL) of Form B in polyethylene glycol 400, transcutol and methanol solvents are as follows: […]

[2] = Crystallization determinations, solubility comments (Table IV); format: physicochemical; settings: for Solubility (Comments): evaporation at 25° C.
Procedure: Recrystallization procedures for the respective forms were carried out in each case with the compound being dissolved in the selected solvent and stored at ambient temperature (e.g., 25° C.) until the solvent evaporated. The solid residue was then analyzed by x-ray diffraction.
In the respective anti-solvent determinations, the compound was dissolved in a selected solvent at 25° C., and water or alcohol was added to precipitate a solid. The solid was analyzed by x-ray diffraction.
The compound 4-(((7-oxo-6,7-dihydro-8H-[1,3]thiazolo[5,4-e]indol-8-ylidene)-methyl)amino)-N-(4-pyridinylmethyl) benzenesulfonamide was subjected to crystallization determinations using various solvents and methods of crystallization as described in Table IV below.
In the case of solvent that are relatively non-volatile (DMSO, DMF), complete evaporation was difficult to achieve at […] The presence of solvent was evident as an amorphous hump in the PXRD pattern. Cooling at 5° C. was less successful than the other crystallization approaches as a consequence of the low solubility of 4-(((7 oxo-6,7-dihydro-8H [1,3]thiazolo[5,4-e]indol-8-ylidene)methyl)amino)-N-(4-pyridinylmethyl) benzenesulfonamide under such conditions.

Row | SMILES | Solubility ([1]; polyethylene glycol 400, organic solvent or mixture, solvent PEG 400 (polyethylene glycol 400), read-out: Solubility) | Solubility ([1]; solvent methanol) | Solubility ([1]; transcutol, organic solvent or mixture, solvent transcutol, read-out: Solubility) | Solubility ([2]; organic solvent or mixture, solvent ethyl acetate, cooling at 5° C.) | Solubility (Comments) ([2]; solvent pyridine) | Solubility ([1]; solvent PEG 400 (polyethylene glycol 400)) | Solubility ([1]; solvent transcutol) | Solubility (Comments) ([2]; solvent ethyl acetate)
1 | O=C1Nc2ccc3ncsc3c2C1=CNc1ccc(S(=O)(=O)NCc2ccncc2)cc1 [Form A, 4-{[(7-oxo-6,7-dihydro8H-[1,3]thiazolo[5,4-e]indol-8-ylidene)methyl]amino}-N-(4-pyridinylmethyl)-benzenesulfonamide] | 4760 µg/mL (≈ 10.3 mM) | 300 µg/mL (≈ 0.647 mM) | 3150 µg/mL (≈ 6.8 mM) | < 60 µg/mL | low |  |  | 
2 | O=C1Nc2ccc3ncsc3c2C1=CNc1ccc(S(=O)(=O)NCc2ccncc2)cc1 [Form B, 4-{[(7-oxo-6,7-dihydro-8H-[1,3]thiazolo[5,4-e]indol-8-ylidene)methyl]amino}-N-(4-pyridinylmethyl)-benzenesulfonamide] |  | 80 µg/mL (≈ 0.173 mM) |  |  |  | 4500 µg/mL (≈ 9.71 mM) | 2770 µg/mL (≈ 5.98 mM) | low
